Reference: ChEMBL document CHEMBL1145932, “Design and synthesis of novel bioactive peptides and peptidomimetics” (J Med Chem, 2003)
Calls of active or inactive are those of the source. The rule behind the calls is not given here. Numbered stars: 1 amine (or outer) side, 2 acyl side, 3 side chain; on linkers, the order of the positions; unused ones are H or OH. Square brackets hold non-standard residues; d marks the D form. Peptide text beside a SMILES is read from it. * marks the point of attachment. ξ: configuration not given here. Doxorubicin(3'-N) = COc1cccc2c1C(=O)c1c(O)c3c(c(O)c1C2=O)C[C@@](O)(C(=O)CO)C[C@@H]3O[C@H]1C[C@H](N*)[C@H](O)[C@H](C)O1; X2 = COc1cccc2c1C(=O)c1c(O)c3c(c(O)c1C2=O)C[C@@](O)(C(=O)CO)C[C@@H]3O[C@H]1C[C@@H](N*)[C@H](O)[C@H](C)O1; X1 = COc1cccc2c1C(=O)c1c(O)c3c(c(O)c1C2=O)C[C@@](O)(C(=O)CO)C[C@@H]3OC1CC(N*)C(O)C(C)O1; ξPro(4R-OH) = O=C(O)C1C[C@@H](O)CN1; Glutaryl = O=C(CCCC(=O)[*:2])[*:1]; Hyp = O=C(O)[C@@H]1C[C@@H](O)CN1; Chg = N[C@H](C(=O)O)C1CCCCC1; Suc = O=C(CCC(=O)[*:2])[*:1]

Assays:
[1] = system: LNCaP; experiment: In vitro effective concentration against LNCaP prostate cancer cell line; type: functional, cell-based; conditions: Homo sapiens
[2] = Half life period was determined; type: ADME
[3] = system: DuPro; experiment: In vitro effective concentration against DuPRO cancer cell line; type: functional, cell-based; conditions: Homo sapiens
[4] = system: T47D; experiment: In vitro effective concentration against T47D cell line; type: functional, cell-based; conditions: Homo sapiens
[5] = system: Mus musculus; experiment: In vivo maximum tolerated dose was determined; type: functional
[6] = system: COLO 320; experiment: In vitro effective concentration against COLO 320 cell line; type: functional, cell-based; conditions: Homo sapiens
[7] = system: Mus musculus; experiment: In vivo maximum tolerated dose in nude mice was determined; type: functional
[8] = system: Mus musculus; experiment: In vivo percentage reduction of prostate specific antigen (PSA) was determined at a dose of 0.26 umol/kg of the compound; type: functional, Prostate gland
[9] = species: Rattus norvegicus; experiment: In vitro relative potency for the inhibition of growth hormone release; type: functional
[10] = species: Rattus norvegicus; experiment: Relative potency for the inhibition of glucagon hormone release; type: functional
[11] = species: Rattus norvegicus; experiment: Relative potency for the inhibition of insulin hormone release; type: functional
[12] = system: Mus musculus; experiment: In vivo percentage weight reduction of tumor was determined at a dose of 0.26 umol/kg of the compound; type: functional
[13] = species: Rattus norvegicus; experiment: Relative potency for the inhibition of glucagon hormone release; Active; type: functional, organism-based
[14] = species: Rattus norvegicus; experiment: Relative potency for the inhibition of growth hormone release; type: functional

Row | Compound | EC50 [1] [µM] | half-life [2] [min] | Relative potency [9] | Relative potency [11] | further results
1 | CC[C@]1(O)CC[C@@H]2CN1CCC1c3ccccc3NC1[C@@H](c1cc3c(cc1OC)N(C)C1C34CCN3CC=C[C@](CC)(C34)[C@@H](OC(C)=O)[C@]1(O)C(=O)OC)[C@H]2C(=O)OC (stereo partly specified) | 0.5 |  |  |  | 
2 | COc1cccc2c1C(=O)c1c(O)c3c(c(O)c1C2=O)C[C@@](O)(C(=O)CO)C[C@@H]3OC1CC(NC(=O)[C@H](CC(C)C)NC(=O)[C@H](CO)NC(=O)[C@H](CCC(N)=O)NC(=O)[C@@H](NC(=O)[C@H](CO)NC(=O)[C@H](C)NC(=O)C2C[C@@H](O)CN2C(=O)CCC(=O)O)C2CCCCC2)C(O)C(C)O1 (stereo partly drawn) (Suc-[ξPro(4R-OH)]AS[Chg]QSL-X1) | 5.7 | 55 |  |  | EC50 [3]: 100 µM
3 | CC[C@]1(O)CC[C@@H]2CN1CCC1c3ccccc3NC1[C@@H](c1cc3c(cc1OC)N(C)C1C34CCN3CC=C[C@](CC)(C34)[C@@H](OC(=O)[C@@H]3CCCN3C(=O)[C@H](CO)NC(=O)[C@H](CO)NC(=O)[C@H](CCC(N)=O)NC(=O)[C@@H](NC(=O)[C@H](CO)NC(=O)[C@H](CO)NC(=O)[C@@H]3CC(O)CN3C(C)=O)C3CCCCC3)[C@]1(O)C(=O)OC)[C@H]2C(=O)OC (stereo partly specified) | 1.6 | 12 |  |  | EC50 [4]: > 50 µM; MTD [5]: 21.4 µM/kg; EC50 [6]: 14 µM; Tumor weight reduction [7]: 85%; PSA [8]: 99%
4 | C[C@H](O)[C@H]1NC(=O)[C@@H](Cc2ccccc2)N(C)C(=O)[C@@H](C)NC(=O)[C@@H](Cc2ccccc2)NC(=O)[C@H](Cc2c[nH]c3ccccc23)CNC(=O)[C@@H](CCCCN)NC1=O |  |  | 0.27 |  | 
5 | COc1cccc2c1C(=O)c1c(O)c3c(c(O)c1C2=O)C[C@@](O)(C(=O)CO)C[C@@H]3OC1CC(NC(=O)C(N)CC(C)C)C(O)C(C)O1 (stereo partly specified) | 6.7 |  |  |  | EC50 [3]: 14 µM
6 | C[C@@H](O)[C@@H]1NC(=O)[C@H](CCCCN)NC(=O)[C@H](Cc2c[nH]c3ccccc23)NC(=O)[C@H](Cc2ccccc2)NC(=O)CN2CCC[C@@H](NC1=O)C2=O |  |  | < 0.005 | < 0.07 | Relative potency [10]: < 0.07
7 | COc1cccc2c1C(=O)c1c(O)c3c(c(O)c1C2=O)C[C@@](O)(C(=O)CO)C[C@@H]3OC1CC(NC(=O)[C@H](CC(C)C)NC(=O)[C@H](CO)NC(=O)[C@H](CCC(N)=O)NC(=O)[C@H](Cc2ccc(O)cc2)NC(=O)[C@H](CO)NC(=O)[C@H](C)NC(=O)[C@H](CCCCN)NC(C)=O)C(O)C(C)O1 (stereo partly specified) (Ac-KASYQSL-X1) |  | 30 |  |  | 
8 | C[C@@H](O)[C@@H]1NC(=O)[C@H](CCCCN)NC(=O)[C@@H](Cc2c[nH]c3ccccc23)NC(=O)[C@H](Cc2ccccc2)NC(=O)CN2CC[C@@H](NC1=O)C2=O |  |  | 0.001 | < 0.2 | Relative potency [10]: < 0.2
9 | CC[C@]1(O)CC[C@@H]2CN1CCC1c3ccccc3NC1[C@@H](c1cc3c(cc1OC)N(C)C1C34CCN3CC=C[C@](CC)(C34)[C@@H](O)[C@]1(O)C(=O)OC)[C@H]2C(=O)OC (stereo partly specified) | 0.1 |  |  |  | EC50 [4]: 0.15 µM; EC50 [6]: 0.2 µM; MTD [7]: 0.26 µM/kg; Tumor weight reduction [12]: 16%; PSA [8]: 14%
10 | C[C@@H](O)[C@@H]1NC(=O)[C@H](CCCCN)NC(=O)[C@@H](Cc2c[nH]c3ccccc23)NC(=O)[C@H](Cc2ccccc2)NC(=O)CN2CC[C@H](NC1=O)C2=O |  |  | 0.004 | < 0.07 | Relative potency [10]: < 0.07
11 | C[C@@H](O)[C@@H]1NC(=O)[C@H](CCCCN)NC(=O)[C@H](Cc2c[nH]c3ccccc23)NC(=O)[C@H](Cc2ccccc2)NC(=O)CN2CCC[C@H](NC1=O)C2=O |  |  | < 0.005 | < 0.07 | Relative potency [10]: < 0.07
12 | COc1cccc2c1C(=O)c1c(O)c3c(c(O)c1C2=O)C[C@@](O)(C(=O)CO)C[C@@H]3O[C@H]1C[C@H](NC(=O)[C@H](CC(C)C)NC(=O)[C@H](CO)NC(=O)[C@H](CO)NC(=O)[C@H](CCC(N)=O)NC(=O)[C@H](Cc2ccc(O)cc2)NC(=O)[C@H](CO)NC(=O)[C@H](C)NC(=O)[C@H](CCCCN)NC(=O)[C@H](CC(N)=O)NC(=O)[C@H](C)NC(C)=O)[C@H](O)[C@H](C)O1 (Ac-ANKASYQSSL-{Doxorubicin(3'-N)}) |  | 100 |  |  | EC50 [3]: > 100 µM
13 | C[C@@H](O)[C@@H]1NC(=O)[C@H](CCCCN)N(C)C(=O)[C@@H](Cc2c[nH]c3ccccc23)NC(=O)[C@H](Cc2ccccc2)NC(=O)[C@@H]2CCCN2C(=O)[C@H](Cc2ccccc2)NC1=O |  |  | 1.6 | 0.5 | Relative potency [13]: Active
14 | COc1cccc2c1C(=O)c1c(O)c3c(c(O)c1C2=O)C[C@@](O)(C(=O)CO)C[C@@H]3OC1CC(NC(=O)[C@H](CC(C)C)NC(=O)[C@H](CO)NC(=O)[C@H](CCC(N)=O)NC(=O)[C@@H](NC(=O)[C@H](CO)NC(=O)[C@H](C)NC(=O)[C@H](CCCCN)NC(C)=O)C2CCCCC2)C(O)C(C)O1 (stereo partly specified) (Ac-KAS[Chg]QSL-X1) |  | 10 |  |  | EC50 [3]: > 100 µM
15 | C[C@@H](O)[C@@H]1NC(=O)[C@H](CCCCN)NC(=O)[C@@H](Cc2c[nH]c3ccccc23)NC(=O)[C@H](Cc2ccccc2)NC(=O)[C@@H]2CCCN2C(=O)[C@H](Cc2ccccc2)N(C)C1=O |  |  | 0.53 | 1.1 | Relative potency [10]: 2
16 | COc1cccc2c1C(=O)c1c(O)c3c(c(O)c1C2=O)C[C@@](O)(C(=O)CO)C[C@@H]3O[C@H]1C[C@@H](NC(=O)[C@H](CC(C)C)NC(=O)[C@H](CO)NC(=O)[C@H](CCC(N)=O)NC(=O)[C@@H](NC(=O)[C@H](CO)NC(=O)[C@H](C)NC(=O)[C@@H]2C[C@@H](O)CN2C(=O)CCCC(=O)O)C2CCCCC2)[C@H](O)[C@H](C)O1 (Glutaryl-[Hyp]AS[Chg]QSL-X2) | 5 | 30 |  |  | EC50 [3]: > 100 µM
17 | C[C@H](N)C(=O)NCC(=O)N[C@H]1CSSC[C@@H](C(=O)O)NC(=O)[C@H](CO)NC(=O)[C@H]([C@@H](C)O)NC(=O)[C@H](Cc2ccccc2)NC(=O)[C@H]([C@@H](C)O)NC(=O)[C@H](CCCCN)NC(=O)[C@H](Cc2c[nH]c3ccccc23)NC(=O)[C@H](Cc2ccccc2)NC(=O)[C@H](Cc2ccccc2)NC(=O)[C@H](CC(N)=O)NC(=O)[C@H](CCCCN)NC1=O [SOMATOSTATIN] |  |  | 1 |  | 
18 | C[C@H](O)[C@H]1NC(=O)[C@@H](Cc2ccccc2)N(C)C(=O)[C@@H](C)NC(=O)[C@@H](Cc2ccccc2)NC(=O)[C@@H](Cc2c[nH]c3ccccc23)CNC(=O)[C@H](CCCCN)NC1=O |  |  | 0.88 |  | 
19 | C[C@H](O)[C@H]1NC(=O)[C@@H](Cc2ccccc2)NC(=O)[C@@H](C)N(C)C(=O)[C@@H](Cc2ccccc2)NC(=O)[C@H](Cc2c[nH]c3ccccc23)CNC(=O)[C@@H](CCCCN)NC1=O |  |  | 0.003 |  | 
20 | C[C@@H](O)[C@@H]1NC(=O)[C@H](CCCCN)NC(=O)[C@@H](Cc2c[nH]c3ccccc23)NC(=O)[C@H](Cc2ccccc2)NC(=O)[C@H](C)N(C)C(=O)[C@H](Cc2ccccc2)NC1=O |  |  | 3.5 | 6 | Relative potency [10]: 16.7
21 | COc1cccc2c1C(=O)c1c(O)c3c(c(O)c1C2=O)C[C@@](O)(C(=O)CO)C[C@@H]3OC1CC(NC(=O)[C@H](CC(C)C)NC(=O)[C@H](CO)NC(=O)[C@H](CCC(N)=O)NC(=O)[C@@H](NC(=O)[C@H](CO)NC(=O)[C@H](C)NC(=O)C2C[C@@H](O)CN2C(C)=O)C2CCCCC2)C(O)C(C)O1 (stereo partly drawn) (Ac-[ξPro(4R-OH)]AS[Chg]QSL-X1) | 4.5 | 20 |  |  | EC50 [3]: 100 µM
22 | C[C@@H](O)[C@@H]1NC(=O)[C@H](CCCCN)NC(=O)[C@@H](Cc2c[nH]c3ccccc23)NC(=O)[C@H](Cc2ccccc2)NC(=O)[C@@H]2CSSC[C@H](NC1=O)C(=O)NCCCCCCC(=O)N2 |  |  |  |  | Relative potency [14]: 1.24
